Test results reported in US20050282840A1, “Methods of modulating neurotrophin-mediated activity” (PainCeptor Pharma Corporation, priority 2004, published 2005).

Molecular target: T1, p75^NTR (Rattus norvegicus, UniProt P07174)
T1 construct: ^125I-BDNF crosslinking to p75^NTR receptors on nnr5 cells expressing p75^NTR; endogenous in cells; host or cells: PC12^nnr5 cells (TrkB-transfected)
T1 sequence (P07174 30-425): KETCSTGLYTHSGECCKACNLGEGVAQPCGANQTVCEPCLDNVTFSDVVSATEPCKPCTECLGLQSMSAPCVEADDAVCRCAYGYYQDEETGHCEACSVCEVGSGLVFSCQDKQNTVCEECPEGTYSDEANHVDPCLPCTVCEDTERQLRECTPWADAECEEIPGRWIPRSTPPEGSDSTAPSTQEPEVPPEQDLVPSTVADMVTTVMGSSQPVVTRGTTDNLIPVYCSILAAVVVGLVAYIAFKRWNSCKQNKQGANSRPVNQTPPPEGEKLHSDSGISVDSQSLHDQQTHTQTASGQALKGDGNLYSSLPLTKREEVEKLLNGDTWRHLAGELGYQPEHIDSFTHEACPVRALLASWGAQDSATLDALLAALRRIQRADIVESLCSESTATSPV
T1 sequence (P23560 129-247 partner): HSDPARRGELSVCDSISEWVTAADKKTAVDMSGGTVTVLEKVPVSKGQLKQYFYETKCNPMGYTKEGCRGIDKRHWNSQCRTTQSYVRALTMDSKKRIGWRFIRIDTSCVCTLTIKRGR
Assay: 125I-BDNF crosslinking to p75^NTR receptors on nnr5 cells
Assay type: binding
Conditions: 0.1 nM 125I-BDNF, 2 h at 4° C., read-out: IC50 (mean±S.E.M), inhibition of 125I-BDNF crosslinking to p75^NTR
Procedure: Cells were incubated at 37° C. in 5% CO2. PC12 and PC12^nnr5 cells were maintained in RPMI-1640 medium supplemented with 10% fetal calf serum (FCS); cells were harvested by replacing the medium with calcium-magnesium-free balanced salt (Gey's) solution and incubating at 37° C. for 15 min. NIH-3T3 cells were grown in Dulbecco's modified Eagle medium: F12 containing 5% FCS; cells were harvested by replacing the medium with a 0.25% trypsin-0.53 mM ethylenediaminetetraacetic acid (EDTA) solution and incubating at 37° C. for 5 min.
The full-length TrkB cDNA was cloned into the CMV plasmid vector. Transient expression of TrkB in PC12^nnr5 cells was achieved by transfecting the cells with the TrkB expression vector using Lipofectamine Plus reagents (Invitrogen Canada Inc; Burlington, ON). PC12^nnr5 cells were passed through a syringe fitted with a 21-gauge needle several times to prevent clumping. In a 100 mm dish, 10×10^6 cells were plated and used for transfection the next day. […]
PC12 cells or TrkB-expressing PC12^nnr5 cells were recovered using Gey's solution, pelleted by centrifugation, and suspended in HKR (HEPES-Krebs Ringer Solution; [10 mM HEPES, 125 mM NaCl, 4.8 mM KCl, 1.3 mM CaCl2.2H2O, 1.2 mM MgSO4, 1.2 mM KH2PO4, 1 mg/mL BSA, 1 mg/mL glucose, pH 7.35]). […] Dried gels were registered to the autoradiograph and each labeled protein band was quantified by direct gamma counting. […]

SMILES	IC50
COc1ccc(-c2ccc(C=C3C(=O)N(c4ccc(C(=O)O)cc4)N=C3C)o2)c([N+](=O)[O-])c1 (racemic) [Compound A, 4-{4-[5-(4-Methoxy-2-nitro-phenyl)-furan-2-ylmethylene]-3-methyl-5-oxo-4,5-dihydro-pyrazol-1-yl}-benzoic acid]	15.64 ± 0.05 µM
NS(=O)(=O)c1ccc(-c2ccc(/C=C3/SC(=S)N(CCC(=O)O)C3=O)o2)cc1 [Compound B]	10.56 ± 0.05 µM
